In PubChem BioAssay (NCI):
Values joined by “and” are separate entries in the source; they are usually repeats but may differ in a detail not shown here. Equal values may be shown once.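 Assay format: 96-well plates, 48-hour exposure. GI50 marks 50% less growth. TGI: total growth inhibition.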

The compounds below were run on NCI/ADR-RES ovarian (assay: NCI tumour cell line growth inhibition, 48 h).
`C=C1C[C@@H]2O[C@H]3[C@H]4[C@@H](CC[C@@](C)(OC(=O)CCC)[C@H]42)[C@@H](C)C(=O)O[C@@]3(C)CC[C@H]1OO` showed a GI50 of 16.9 µM and a TGI of 31.5 µM.

What follows are compounds tested on TK-10 renal (assay: NCI tumour cell line growth inhibition, 48 h).
`CCOC(=O)c1c(CN2CCN(C)CC2)nc2ccc(Cl)cc2c1-c1ccccc1` was tested, and the GI50 was 5.11 µM and the TGI was 13.6 µM.
In the case of `CCOc1ccc2cc(-c3nn(CC4CCNCC4)c4ncnc(N)c34)ccc2c1`, the GI50 is reported as 16.8 µM and the TGI is reported as 38.8 µM.
Compound `COc1ccccc1C(=O)N(Cc1ccccc1)c1ccc(Cl)c(C(=O)OC(C)C)c1` has a TGI of over 100 µM.
For `OCCN(CO)CO`, the TGI was over 100 µM.
In the case of `CN1CC[C@H](c2c(O)cc(O)c3c(=O)cc(-c4ccccc4Cl)oc23)[C@H](O)C1`, the GI50 is reported as 0.0999 µM and the TGI is reported as over 10 µM.
Work on `COc1ccc(C2=Nn3c(nnc3-n3nc(C)cc3C)SC2)cc1` yielded a GI50 of 0.227 µM and a TGI of over 100 µM.
For `CC(=O)Oc1cc2cnc3c4cc(OC(C)=O)c(OC(C)=O)cc4ccc3c2cc1OC(C)=O`, the GI50 was 2.78 µM and the TGI was over 100 µM.
`COc1cccc(-c2nc3sccn3c2-c2ccnc(NCCCNS(=O)(=O)c3ccccc3)c2)c1` showed a GI50 of 4.27 µM and a TGI of over 100 µM.
Compound `CC1OC(OC2C(O)C(O)C(O)C(O)C2O)C(N)CC1N=C(N)C(=O)O` (stereo not drawn) has a TGI of over 100 µM.
In the case of `C=CC(=O)Nc1cc2c(Nc3ccc(F)c(Cl)c3)ncnc2cc1C#CC(C)(C)N1CCN(C)CC1`, the GI50 is reported as 0.0522 µM and the TGI is reported as 2.03 µM.
`CSC1=Nc2c(c(C)c(-c3ccccc3)n2COC(CO)CO)C2=NC(=O)CC(C)N12` (stereo not drawn) gave a GI50 of over 100 µM and a TGI of over 100 µM.
With `NCCCN=c1ccc2c3c1c(O)c1c(O)ccc(=O)c1c3[nH]n2CCNCCO` the GI50 was 6.59 µM and the TGI was 21.3 µM and 77.7 µM.
`C=C1C[C@@H]2O[C@H]3[C@H]4[C@@H](CC[C@@](C)(OC(=O)CCC)[C@H]42)[C@@H](C)C(=O)O[C@@]3(C)CC[C@H]1OO` gave a GI50 of 26.1 µM and a TGI of 49.4 µM.

These compounds were tested on HT29 colon (assay: NCI tumour cell line growth inhibition, 48 h).
For `CCOC(=O)c1c(CN2CCN(C)CC2)nc2ccc(Cl)cc2c1-c1ccccc1`, the GI50 was 2.28 µM and the TGI was 6.16 µM.
`CCOc1ccc2cc(-c3nn(CC4CCNCC4)c4ncnc(N)c34)ccc2c1` was tested, and the GI50 was 10.9 µM and the TGI was 32 µM.
In the case of `COc1ccccc1C(=O)N(Cc1ccccc1)c1ccc(Cl)c(C(=O)OC(C)C)c1`, the TGI is reported as over 74 µM.
`OCCN(CO)CO` was tested, and the TGI was over 100 µM.
`CN1CC[C@H](c2c(O)cc(O)c3c(=O)cc(-c4ccccc4Cl)oc23)[C@H](O)C1` gave a TGI of over 10 µM.
Compound `COc1ccc(C2=Nn3c(nnc3-n3nc(C)cc3C)SC2)cc1` has a GI50 of 0.0401 µM.
Work on `CC(=O)Oc1cc2cnc3c4cc(OC(C)=O)c(OC(C)=O)cc4ccc3c2cc1OC(C)=O` yielded a GI50 of 4.18 µM and a TGI of over 100 µM.
Work on `COc1cccc(-c2nc3sccn3c2-c2ccnc(NCCCNS(=O)(=O)c3ccccc3)c2)c1` yielded a GI50 of 3.23 µM and a TGI of over 100 µM.
With `CC1OC(OC2C(O)C(O)C(O)C(O)C2O)C(N)CC1N=C(N)C(=O)O` (stereo not drawn) the TGI was over 100 µM.
`C=CC(=O)Nc1cc2c(Nc3ccc(F)c(Cl)c3)ncnc2cc1C#CC(C)(C)N1CCN(C)CC1` gave a GI50 of 1.56 µM and a TGI of 4.09 µM.
Compound `CSC1=Nc2c(c(C)c(-c3ccccc3)n2COC(CO)CO)C2=NC(=O)CC(C)N12` (stereo not drawn) has a GI50 of over 100 µM and a TGI of over 100 µM.
In the case of `NCCCN=c1ccc2c3c1c(O)c1c(O)ccc(=O)c1c3[nH]n2CCNCCO`, the GI50 is reported as 3.08 µM and the TGI is reported as 11.9 µM and 21.7 µM.
`C=C1C[C@@H]2O[C@H]3[C@H]4[C@@H](CC[C@@](C)(OC(=O)CCC)[C@H]42)[C@@H](C)C(=O)O[C@@]3(C)CC[C@H]1OO` gave a GI50 of 16.9 µM and a TGI of 33.6 µM.

These compounds were tested on COLO 205 colon (assay: NCI tumour cell line growth inhibition, 48 h).
Work on `CCOC(=O)c1c(CN2CCN(C)CC2)nc2ccc(Cl)cc2c1-c1ccccc1` yielded a GI50 of 1710 nM and a TGI of 3.57 µM.
With `CCOc1ccc2cc(-c3nn(CC4CCNCC4)c4ncnc(N)c34)ccc2c1` the GI50 was 12200 nM and the TGI was 27 µM.
`COc1ccccc1C(=O)N(Cc1ccccc1)c1ccc(Cl)c(C(=O)OC(C)C)c1` showed a TGI of 50.9 µM.
In the case of `OCCN(CO)CO`, the TGI is reported as over 100 µM.
`CN1CC[C@H](c2c(O)cc(O)c3c(=O)cc(-c4ccccc4Cl)oc23)[C@H](O)C1` was tested, and the GI50 was 43.3 nM and the TGI was 0.209 µM.
Compound `COc1ccc(C2=Nn3c(nnc3-n3nc(C)cc3C)SC2)cc1` has a GI50 of 46 nM and a TGI of 0.218 µM.
`CC(=O)Oc1cc2cnc3c4cc(OC(C)=O)c(OC(C)=O)cc4ccc3c2cc1OC(C)=O` showed a GI50 of 4300 nM and a TGI of over 100 µM.
`COc1cccc(-c2nc3sccn3c2-c2ccnc(NCCCNS(=O)(=O)c3ccccc3)c2)c1` was tested, and the GI50 was 3010 nM and the TGI was over 100 µM.
For `CC1OC(OC2C(O)C(O)C(O)C(O)C2O)C(N)CC1N=C(N)C(=O)O` (stereo not drawn), the TGI was over 100 µM.
Compound `C=CC(=O)Nc1cc2c(Nc3ccc(F)c(Cl)c3)ncnc2cc1C#CC(C)(C)N1CCN(C)CC1` has a GI50 of 2090 nM and a TGI of 5.43 µM.
`CSC1=Nc2c(c(C)c(-c3ccccc3)n2COC(CO)CO)C2=NC(=O)CC(C)N12` (stereo not drawn) gave a GI50 of over 100000 nM and a TGI of over 100 µM.
`NCCCN=c1ccc2c3c1c(O)c1c(O)ccc(=O)c1c3[nH]n2CCNCCO` was tested, and the GI50 was 1610 nM and the TGI was 5.91 µM and 6.96 µM.
Compound `C=C1C[C@@H]2O[C@H]3[C@H]4[C@@H](CC[C@@](C)(OC(=O)CCC)[C@H]42)[C@@H](C)C(=O)O[C@@]3(C)CC[C@H]1OO` has a GI50 of 21300 nM and a TGI of 37.4 µM.

Each compound was assayed on NCI-H522 lung (assay: NCI tumour cell line growth inhibition, 48 h).
`CCOC(=O)c1c(CN2CCN(C)CC2)nc2ccc(Cl)cc2c1-c1ccccc1` showed a GI50 of 11700 nM and a TGI of 25.3 µM.
`CCOc1ccc2cc(-c3nn(CC4CCNCC4)c4ncnc(N)c34)ccc2c1` gave a GI50 of 15800 nM and a TGI of 30.4 µM.
`COc1ccccc1C(=O)N(Cc1ccccc1)c1ccc(Cl)c(C(=O)OC(C)C)c1` showed a TGI of 18.3 µM.
With `OCCN(CO)CO` the TGI was over 100 µM.
For `CN1CC[C@H](c2c(O)cc(O)c3c(=O)cc(-c4ccccc4Cl)oc23)[C@H](O)C1`, the GI50 was 102 nM and the TGI was 0.847 µM.
Compound `COc1ccc(C2=Nn3c(nnc3-n3nc(C)cc3C)SC2)cc1` has a GI50 of 31 nM and a TGI of 0.529 µM.
For `CC(=O)Oc1cc2cnc3c4cc(OC(C)=O)c(OC(C)=O)cc4ccc3c2cc1OC(C)=O`, the GI50 was 392 nM and the TGI was 4.56 µM.
With `COc1cccc(-c2nc3sccn3c2-c2ccnc(NCCCNS(=O)(=O)c3ccccc3)c2)c1` the GI50 was 2340 nM and the TGI was 15 µM.
`CC1OC(OC2C(O)C(O)C(O)C(O)C2O)C(N)CC1N=C(N)C(=O)O` (stereo not drawn) was tested, and the TGI was over 100 µM.
For `C=CC(=O)Nc1cc2c(Nc3ccc(F)c(Cl)c3)ncnc2cc1C#CC(C)(C)N1CCN(C)CC1`, the GI50 was 456 nM and the TGI was 2.28 µM.
With `CSC1=Nc2c(c(C)c(-c3ccccc3)n2COC(CO)CO)C2=NC(=O)CC(C)N12` (stereo not drawn) the GI50 was over 100000 nM and the TGI was over 100 µM.
For `NCCCN=c1ccc2c3c1c(O)c1c(O)ccc(=O)c1c3[nH]n2CCNCCO`, the GI50 was 550 nM and the TGI was 4.69 µM and 3.28 µM.
With `C=C1C[C@@H]2O[C@H]3[C@H]4[C@@H](CC[C@@](C)(OC(=O)CCC)[C@H]42)[C@@H](C)C(=O)O[C@@]3(C)CC[C@H]1OO` the GI50 was 18200 nM and the TGI was 36.5 µM.

What follows are compounds tested on SK-MEL-28 melanoma (assay: NCI tumour cell line growth inhibition, 48 h).
Compound `CCOC(=O)c1c(CN2CCN(C)CC2)nc2ccc(Cl)cc2c1-c1ccccc1` has a GI50 of 1.74 µM and a TGI of 3.19 µM.
`CCOc1ccc2cc(-c3nn(CC4CCNCC4)c4ncnc(N)c34)ccc2c1` showed a GI50 of 16.1 µM and a TGI of 30.2 µM.
`COc1ccccc1C(=O)N(Cc1ccccc1)c1ccc(Cl)c(C(=O)OC(C)C)c1` gave a TGI of over 100 µM.
`OCCN(CO)CO` gave a TGI of over 100 µM.
`CN1CC[C@H](c2c(O)cc(O)c3c(=O)cc(-c4ccccc4Cl)oc23)[C@H](O)C1` showed a TGI of 1.3 µM.
`COc1ccc(C2=Nn3c(nnc3-n3nc(C)cc3C)SC2)cc1` gave a GI50 of 0.294 µM and a TGI of over 100 µM.
For `CC(=O)Oc1cc2cnc3c4cc(OC(C)=O)c(OC(C)=O)cc4ccc3c2cc1OC(C)=O`, the GI50 was 3.15 µM and the TGI was over 100 µM.
In the case of `COc1cccc(-c2nc3sccn3c2-c2ccnc(NCCCNS(=O)(=O)c3ccccc3)c2)c1`, the GI50 is reported as 3.59 µM and the TGI is reported as over 100 µM.
`CC1OC(OC2C(O)C(O)C(O)C(O)C2O)C(N)CC1N=C(N)C(=O)O` (stereo not drawn) was tested, and the TGI was over 100 µM.
`C=CC(=O)Nc1cc2c(Nc3ccc(F)c(Cl)c3)ncnc2cc1C#CC(C)(C)N1CCN(C)CC1` was tested, and the GI50 was 3.1 µM and the TGI was 5.67 µM.
`CSC1=Nc2c(c(C)c(-c3ccccc3)n2COC(CO)CO)C2=NC(=O)CC(C)N12` (stereo not drawn) gave a GI50 of over 100 µM and a TGI of over 100 µM.
`NCCCN=c1ccc2c3c1c(O)c1c(O)ccc(=O)c1c3[nH]n2CCNCCO` was tested, and the GI50 was 5.48 µM and 6.41 µM.
For `C=C1C[C@@H]2O[C@H]3[C@H]4[C@@H](CC[C@@](C)(OC(=O)CCC)[C@H]42)[C@@H](C)C(=O)O[C@@]3(C)CC[C@H]1OO`, the GI50 was 20 µM and the TGI was 35.4 µM.
